These results are taken from article PMC4432589, “Structural basis for dynamic mechanism of nitrate/nitrite antiport by NarK” (Nature Communications, 2015).

For assay [1], the target named is T1, NarK (Escherichia coli, UniProt P10903).
T1 construct: full-length gene in pET-modified vector; GFP-His8 tag cleaved by TEV protease; expressed in E. coli C41(DE3) delta-acrB; DDM/CHS purified; LCP crystals or soybean lipid proteoliposomes
T1 sequence (P10903 1-463): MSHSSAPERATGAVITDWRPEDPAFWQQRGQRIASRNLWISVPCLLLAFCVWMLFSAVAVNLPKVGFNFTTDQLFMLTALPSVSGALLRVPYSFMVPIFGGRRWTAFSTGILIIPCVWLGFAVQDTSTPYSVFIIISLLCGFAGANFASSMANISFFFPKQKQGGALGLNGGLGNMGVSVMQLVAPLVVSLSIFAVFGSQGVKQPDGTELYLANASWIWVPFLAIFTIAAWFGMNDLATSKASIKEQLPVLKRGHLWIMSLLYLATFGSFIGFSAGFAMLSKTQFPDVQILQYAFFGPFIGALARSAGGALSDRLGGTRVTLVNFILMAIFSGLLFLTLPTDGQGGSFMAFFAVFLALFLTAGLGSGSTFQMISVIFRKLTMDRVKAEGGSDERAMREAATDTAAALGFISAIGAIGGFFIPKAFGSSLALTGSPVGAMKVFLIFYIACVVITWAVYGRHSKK
The assay is described as follows: X-ray crystal structure (LCP, SIRAS and molecular replacement). The conditions noted are these: occluded state (2.4 Å, pH 5.8, 100 mM NH4NO3) and inward-open state (2.4 Å, pH 6.0); central substrate-binding site.

For assay [2], the target named is T1, NarK. Put plainly: nitrite uptake into NarK proteoliposomes, DAF-FM fluorescence. The assay is classed as biochemical. The conditions noted are these: 50 mM NaNO2 outside, 50 mM NaNO3 inside as counter-anion; pH 7.0; membrane potential; 37 °C.

With `O=[N+]([O-])O` [nitrate], the “X-ray crystal structure (LCP, SIRAS and molecular replacement)” value in assay [1] is 4U4T (nitrate-bound inward-open state) and 4U4W (nitrate-bound occluded state).
With `O=NO` [nitrite], the “nitrite uptake into NarK proteoliposomes, DAF-FM fluorescence” value in assay [2] is “We observed the uptake of nitrite when nitrate was present inside the liposomes”.
